Results reported in US4663329A, “Thienopyridinone derivatives and anti-bacterial compositions containing them” (Sanofi, priority 1984, dated 1987).
In brackets after ≈: the same amount, converted by molar mass. Read-outs that look alike come from different tables or passages of the source.

Key:
Format in all cases: cell-based
[1] = test system: Bordetella bronchiseptica ATCC 4617; experiment: In vitro antibacterial activity, MIC, Bordetella bronchiseptica ATCC 4617
Protocol: (§1) Tests carried out in vitro in accordance with the experimental procedure described hereunder have provided evidence of the antibacterial activity in question.
(§2) For this purpose, the M.I.C. were determined i.e. the minimal inhibiting concentrations of the compound under study acting on the growth of the bacteria at 37° C.
(§3) The serial dilutions method was used utilizing a MUELLER HINTON gelose medium at pH=7.4 and a bacterial inoculum of 10^4 units forming colonies. This inoculum was applied to the gelose by means of a multiple sowing device.
(§4) A scale of concentrations ranging from 100 to 0.05 μg/ml of compound to be studied was used starting from mother solutions titrating 1000 μg/ml, all the subsequent dilutions being effected in distilled water.

[2] = test system: Klebsiella pneumoniae R 30; experiment: In vitro antibacterial activity, MIC, Klebsiella pneumoniae R 30
Protocol: as §1, §2, §3, §4

[3] = test system: Escherichia coli 54127 IP; experiment: In vitro antibacterial activity, MIC, Escherichia coli 54127 IP
Protocol: as §1, §2, §3, §4

[4] = test system: Klebsiella pneumoniae ATCC 10031; experiment: In vitro antibacterial activity, MIC, Klebsiella pneumoniae ATCC 10031
Protocol: as §1, §2, §3, §4

[5] = test system: Providencia stuartii 5158; experiment: In vitro antibacterial activity, MIC, Providencia stuartii 5158
Protocol: as §1, §2, §3, §4

[6] = test system: Streptococcus faecalis 5855 IP; experiment: In vitro antibacterial activity, MIC, Streptococcus faecalis 5855 IP; details: 37° C.
Protocol: as §1, §2, §3, §4

[7] = test system: Proteus mirabilis ATCC 21100; experiment: In vitro antibacterial activity, MIC, Proteus mirabilis ATCC 21100
Protocol: as §1, §2, §3, §4

[8] = test system: Proteus vulgaris RL 99 bis; experiment: In vitro antibacterial activity, MIC, Proteus vulgaris RL 99 bis
Protocol: as §1, §2, §3, §4

[9] = test system: Serratia liquefaciens 376; experiment: In vitro antibacterial activity, MIC, Serratia liquefaciens 376; details: 37° C.
Protocol: as §1, §2, §3, §4

[10] = test system: Enterobacter hafniae RO 46; experiment: In vitro antibacterial activity, MIC, Enterobacter hafniae RO 46
Protocol: as §1, §2, §3, §4

[11] = test system: Pseudomonas aeruginosa 8203; experiment: In vitro antibacterial activity, MIC, Pseudomonas aeruginosa 8203; details: 37° C.
Protocol: as §1, §2, §3, §4

Proteus morganii 1510 = experiment: In vitro antibacterial activity, MIC, Proteus morganii 1510
Protocol: as §1, §2, §3, §4

[12] = test system: Staphylococcus aureus 53154 IP; experiment: In vitro antibacterial activity, MIC, Staphylococcus aureus 53154 IP; details: Staphylococcus aureus 53154 IP, 37° C., pH=7.4, inoculum 10^4
Protocol: as §1, §2, §3, §4

[13] = test system: Bacillus subtilis ATCC 6633; experiment: In vitro antibacterial activity, MIC, Bacillus subtilis ATCC 6633
Protocol: as §1, §2, §3, §4

[14] = test system: Enterobacter cloacae P 99; experiment: In vitro antibacterial activity, MIC, Enterobacter cloacae P 99
Protocol: as §1, §2, §3, §4

[15] = test system: Salmonella typhimurium A 222 IP; experiment: In vitro antibacterial activity, MIC, Salmonella typhimurium A 222 IP
Protocol: as §1, §2, §3, §4

[16] = test system: Salmonella typhi ATCC 6539; experiment: In vitro antibacterial activity, MIC, Salmonella typhi ATCC 6539
Protocol: as §1, §2, §3, §4

[17] = test system: Citrobacter freundii GN 346; experiment: In vitro antibacterial activity, MIC, Citrobacter freundii GN 346
Protocol: as §1, §2, §3, §4

[18] = test system: Escherichia coli SOL RL 90; experiment: In vitro antibacterial activity, MIC, Escherichia coli SOL RL 90
Protocol: as §1, §2, §3, §4

[19] = test system: Acinetobacter calcoaceticus C 1733; experiment: In vitro antibacterial activity, MIC, Acinetobacter calcoaceticus C 1733
Protocol: as §1, §2, §3, §4

Shigella sonnei R 018 = experiment: In vitro antibacterial activity, MIC, Shigella sonnei R 018; details: R018, 37° C., pH=7.4, inoculum 10^4
Protocol: as §1, §2, §3, §4

[20] = ATCC4617, 37° C., pH=7.4, inoculum 10^4, read-out: MIC
[21] = Klebsiella pneumoniae, ATCC10031
[22] = Enterococcus faecalis, pH=7.4, inoculum 10^4, read-out: MIC
[23] = pH=7.4, inoculum 10^4, read-out: MIC
[24] = Salmonella enterica, TYPHIMURIUM
[25] = C1733, 37° C., pH=7.4, inoculum 10^4, read-out: MIC
[26] = RL99BIS, Proteus vulgaris RL 99 bis, 37° C., pH=7.4, inoculum 10^4, read-out: MIC
[27] = Morganella morganii, Proteus morganii 1510, 37° C., pH=7.4, inoculum 10^4, read-out: MIC

SMILES	MIC [1, 20] [µg/mL]	MIC ([2]; Klebsiella pneumoniae, R30) [µg/mL]	MIC ([3]; Escherichia coli, 54127IP) [µg/mL]	MIC [4, 21] [µg/mL]	MIC ([5]; Providencia stuartii, 5158) [µg/mL]	MIC [6, 22] [µg/mL]	MIC ([7]; Proteus mirabilis, ATCC21100) [µg/mL]	MIC (Shigella sonnei R 018) [µg/mL]	MIC [9, 23] [µg/mL]	MIC ([10]; Hafnia alvei, RO46) [µg/mL]	MIC [11, 23] [µg/mL]	MIC ([12]; read-out: MIC) [µg/mL]	MIC ([14]; Enterobacter cloacae, P99) [µg/mL]	MIC [15, 24] [µg/mL]	MIC ([16]; Salmonella enterica) [µg/mL]	MIC ([17]; Citrobacter freundii, GN346) [µg/mL]	MIC ([18]; Escherichia coli, SOLRL90) [µg/mL]	MIC [19, 25] [µg/mL]	MIC [8, 26] [µg/mL]	MIC (Proteus morganii 1510; [27]) [µg/mL]	other results
CCn1cc(C(=O)O)c(=O)c2cc(C=NOC)sc21 (single isomer, unassigned) [Compound H, 4,7-Dihydro-7-ethyl-2-methoxyiminomethyl-4-oxo-thieno[2,3-b]pyridine-5-carboxylic acid, anti-isomer]																					MIC ([1]; 37° C., pH=7.4, inoculum 10^4): > 25 µg/mL; MIC ([2]; Klebsiella pneumoniae R 30, 37° C., pH=7.4, inoculum 10^4): 6.25 µg/mL (≈ 22.3 µM); MIC ([3]; Escherichia coli 54127 IP, 37° C., pH=7.4, inoculum 10^4): 1.56 µg/mL (≈ 5.57 µM); MIC ([4]; Klebsiella pneumoniae ATCC 10031, 37° C., pH=7.4, inoculum 10^4): 0.4 µg/mL (≈ 1.43 µM); MIC ([5]; Providencia stuartii 5158, 37° C., pH=7.4, inoculum 10^4): 6.25 µg/mL (≈ 22.3 µM); MIC ([6]; pH=7.4, inoculum 10^4): > 100 µg/mL; MIC ([7]; Proteus mirabilis ATCC 21100, 37° C., pH=7.4, inoculum 10^4): 0.8 µg/mL (≈ 2.85 µM); MIC ([8]; Proteus vulgaris RL 99 bis, 37° C., pH=7.4, inoculum 10^4): 1.56 µg/mL (≈ 5.57 µM); MIC ([9]; pH=7.4, inoculum 10^4): > 25 µg/mL; MIC ([10]; Enterobacter hafniae RO 46, 37° C., pH=7.4, inoculum 10^4): 3.12 µg/mL (≈ 11.1 µM); MIC ([11]; pH=7.4, inoculum 10^4): > 25 µg/mL; MIC (Proteus morganii 1510; Proteus morganii 1510, 37° C., pH=7.4, inoculum 10^4): 0.8 µg/mL (≈ 2.85 µM); MIC [12]: > 50 µg/mL; MIC ([13]; Bacillus subtilis ATCC 6633, 37° C., pH=7.4, inoculum 10^4): 0.8 µg/mL (≈ 2.85 µM); MIC ([14]; Enterobacter cloacae P 99, 37° C., pH=7.4, inoculum 10^4): 3.12 µg/mL (≈ 11.1 µM); MIC ([15]; Salmonella typhimurium A 222 IP, 37° C., pH=7.4, inoculum 10^4): 12.5 µg/mL (≈ 44.6 µM); MIC ([16]; Salmonella typhi ATCC 6539, 37° C., pH=7.4, inoculum 10^4): 25 µg/mL (≈ 89.2 µM); MIC ([17]; Citrobacter freundii GN 346, 37° C., pH=7.4, inoculum 10^4): 6.25 µg/mL (≈ 22.3 µM); MIC ([18]; Escherichia coli SOL RL 90, 37° C., pH=7.4, inoculum 10^4): 6.25 µg/mL (≈ 22.3 µM); MIC ([19]; 37° C., pH=7.4, inoculum 10^4): > 25 µg/mL
CCn1cc(C(=O)O)c(=O)c2cc(C=NO)sc21 [Compound A, 4,7-Dihydro-7-ethyl-2-hydroxyiminomethyl-4-oxo-thieno[2,3-b]pyridine-5-carboxylic acid]	> 100	6.25 (≈ 23.5 µM)	3.12 (≈ 11.7 µM)	1.56 (≈ 5.86 µM)	6.25 (≈ 23.5 µM)	> 100	1.56 (≈ 5.86 µM)	1.56 (≈ 5.86 µM)	100 (≈ 376 µM)	1.56 (≈ 5.86 µM)	50 (≈ 188 µM)	25 (≈ 93.9 µM)	6.25 (≈ 23.5 µM)	6.25 (≈ 23.5 µM)	6.25 (≈ 23.5 µM)	6.25 (≈ 23.5 µM)	6.25 (≈ 23.5 µM)	> 100			MIC ([8]; Proteus vulgaris, RL99BIS): 1.56 µg/mL (≈ 5.86 µM); MIC (Proteus morganii 1510; Morganella morganii, 1510): 1.56 µg/mL (≈ 5.86 µM)
CCn1cc(C(=O)O)c(=O)c2cc(/C=N/O)sc21 [Compound B, 4,7-Dihydro-7-ethyl-2-hydroxyiminomethyl-4-oxo-thieno[2,3-b]pyridine-5-carboxylic acid, anti-isomer]	> 100	6.25 (≈ 23.5 µM)	3.12 (≈ 11.7 µM)	1.56 (≈ 5.86 µM)	6.25 (≈ 23.5 µM)	> 100	1.56 (≈ 5.86 µM)	0.8 (≈ 3 µM)	50 (≈ 188 µM)	3.12 (≈ 11.7 µM)	100 (≈ 376 µM)	12.5 (≈ 46.9 µM)	6.25 (≈ 23.5 µM)	3.12 (≈ 11.7 µM)	6.25 (≈ 23.5 µM)	3.12 (≈ 11.7 µM)	3.12 (≈ 11.7 µM)	> 100	0.8 (≈ 3 µM)	0.4 (≈ 1.5 µM)	MIC ([13]; Bacillus subtilis, ATCC6633): 6.25 µg/mL (≈ 23.5 µM)
CCn1cc(C(=O)O)c(=O)c2cc(/C=N\O)sc21 [Compound C, 4,7-Dihydro-7-ethyl-2-hydroxyiminomethyl-4-oxo-thieno[2,3-b]pyridine-5-carboxylic acid, syn-isomer]	> 100	6.25 (≈ 23.5 µM)				> 100		0.8 (≈ 3 µM)	50 (≈ 188 µM)		> 100	12.5 (≈ 46.9 µM)	3.12 (≈ 11.7 µM)	3.12 (≈ 11.7 µM)	3.12 (≈ 11.7 µM)	3.12 (≈ 11.7 µM)	3.12 (≈ 11.7 µM)	> 100	12.5 (≈ 46.9 µM)	0.4 (≈ 1.5 µM)	MIC ([3]; Escherichia coli 54127 IP, 37° C., pH=7.4, inoculum 10^4, read-out: MIC): 12.5 µg/mL (≈ 46.9 µM); MIC ([4]; ATCC10031, Klebsiella pneumoniae ATCC 10031, 37° C., pH=7.4, inoculum 10^4, read-out: MIC): 12.5 µg/mL (≈ 46.9 µM); MIC ([5]; Providencia stuartii 5158, 37° C., pH=7.4, inoculum 10^4, read-out: MIC): 12.5 µg/mL (≈ 46.9 µM); MIC ([7]; ATCC21100, Proteus mirabilis ATCC 21100, 37° C., pH=7.4, inoculum 10^4, read-out: MIC): 12.5 µg/mL (≈ 46.9 µM); MIC ([10]; Hafnia alvei, RO46, Enterobacter hafniae RO 46, 37° C., pH=7.4, inoculum 10^4, read-out: MIC): 12.5 µg/mL (≈ 46.9 µM); MIC ([13]; Bacillus subtilis, ATCC6633): 6.25 µg/mL (≈ 23.5 µM)
